Where two headings read alike, the source gives them in different places.
Experiments:
[1] = system: Panc-1 pancreatic carcinoma; test: In vivo evaluation against Panc-1 human pancreatic carcinoma (Example 17)
[2] = system: A2780 ovarian carcinoma; conditions: for Mean Score: tumor scoring system
Protocol: Dosing was initiated on Day 1. […] Taxotere was given i.v. on a qd x 1 schedule at a dose of 70 mg/kg. […] The study was terminated on Day 60. Treatment groups are detailed in Table 7.

[3] = system: DU145 prostate carcinoma; conditions: for Stable Disease / Complete Response / Partial Response / Survivors / Toxic Deaths: number of 5 mice
From the text: Dosing was initiated on Day 1. […] Treatment groups are detailed in Table 5.

[4] = system: SK-MES carcinoma; test: In vivo evaluation against SK-MES human lung carcinoma xenograft (i.v., Example 11); conditions: SK-MES
Protocol: Antitumor compounds were formulated for an i.v. dosing regime prepared in the following vehicle: 10% ethanol, 10% Cremophor and 80% isotonic saline.
Vehicle control animals were dosed twice intravenously with half the total volume being given separated by one hour. The study was terminated on Day 60.
A complete response is obtained if the tumor is not palpable at the end of the study.
A tumor scoring system was designed to provide a more quantitative ranking of efficacy (therapeutic potential) among the antitumor agents evaluated against the different human solid tumor xenografts. Each mouse in a study was given a score of from 1 to 10 at the end of the study. The scores can be summarized as follows:
The individual score for each mouse was averaged into a mean score for each treatment group. […]

[5] = number of mice, i.v. qd x 1, mg/kg: Taxol 36, 0499 77, 0503 72.6, 0670 123.1, 0706 107.6, 0838 72.6, 0854 76.9, 6 mice/group, Day 60
[6] = number of mice, Taxol i.p. qd x 5, 15 mg/kg daily, 5 mice
[7] = number of mice, i.v. qd x 1 at estimated MTD (Taxol 24 mg/kg, Taxotere 70 mg/kg, 0983 72.6 mg/kg), 5 mice/group (Taxotere 6), Day 60
[8] = i.v. qd x 1 at estimated MTD (Taxol 24 mg/kg split), Day 91

Compound: CC(=O)O[C@H]1C(=O)[C@@]2(C)[C@H]([C@H](OC(=O)c3ccccc3)[C@]3(O)C[C@H](OC(=O)[C@H](O)[C@@H](NC(=O)c4ccccc4)c4ccccc4)C(C)=C1C3(C)C)[C@]1(OC(C)=O)CO[C@@H]1C[C@@H]2O [Taxol, paclitaxel, reference compound]
- survival extension compared to Group 1 controls ([1]; Panc-1 (Example 17), Taxol 36 mg/kg i.v. qd x 1, three mice): 126%
- Toxic Deaths ([1]; Panc-1 (Example 17), i.v. qd x 1, six mice per group): Three
- Toxic Deaths ([1]; number of mice, i.v. qd x 1, mg/kg: Taxol 36, 0499 77, 0503 72.6, 0670 123.1, 0706 107.6, 0838 72.6, 0854 76.9, 6 mice/group): 3
- Complete Response [1, 5]: 0
- Partial Response [1, 5]: 0
- Stable Disease [1, 5]: 0
- Survivors [1, 5]: 0
- Mean Score ([1]; tumor scoring system, i.v. qd x 1, mg/kg: Taxol 36, 0499 77, 0503 72.6, 0670 123.1, 0706 107.6, 0838 72.6, 0854 76.9, 6 mice/group): 1.6 ± 0.7
- toxicity ([2]; A2780, Taxol i.p. 15 mg/kg qd x 5 (Group 3)): highly toxic
- mice succumbed to drug-related side effects ([2]; A2780, Taxol i.p. 15 mg/kg qd x 5 (Group 3), five mice): four
- antitumor activity ([2]; A2780, i.v. qd x 1): moderately efficacious
- survival extension compared to Group 1 controls ([2]; A2780, i.v. qd x 1): 87%
- MDS ([2]; A2780, i.v. qd x 1 (compounds estimated MTD; Taxol 24 mg/kg split; Taxotere 70 mg/kg), days until tumor 2.0 g, ended Day 60): 21.9 days
- Stable Disease ([2]; A2780, i.v. qd x 1, five mice per group): One
- MDS (n) ([2]; mean days of survival until neoplasm reached 2.0 g, i.v. qd x 1 at estimated MTD (Taxol 24 mg/kg, Taxotere 70 mg/kg, 0983 72.6 mg/kg), 5 mice/group (Taxotere 6), terminated Day 60): 21.9 ± 5.5 (5) days
- Complete Response [2, 6]: 0
- Partial Respons [2, 6]: 0
- Stable Disease [2, 6]: 0
- Survivors [2, 6]: 0
- Toxic Deaths [2, 6]: 4
- Toxic Deaths ([2]; number of mice, i.v. qd x 1 at estimated MTD (Taxol 24 mg/kg, Taxotere 70 mg/kg, 0983 72.6 mg/kg), 5 mice/group (Taxotere 6)): 0
- Complete Response [2, 7]: 0
- Partial Respons [2, 7]: 0
- Stable Disease [2, 7]: 0
- Survivors [2, 7]: 1
- Mean Score ([2]; Taxol i.p. qd x 5, 15 mg/kg daily, 5 mice): 0.6 ± 0.6
- Mean Score ([2]; i.v. qd x 1 at estimated MTD (Taxol 24 mg/kg, Taxotere 70 mg/kg, 0983 72.6 mg/kg), 5 mice/group (Taxotere 6)): 1.8 ± 0.4
- increase in survival compared to Group 1 controls ([3]; DU145, Taxol 24 mg/kg i.v. qd x 1): 9%
- toxicity ([3]; DU145, Taxol i.p. 18 mg/kg qd x 5 (Group 3)): highly toxic
- mice died of drug-related side effects ([3]; DU145, Taxol i.p. 18 mg/kg qd x 5 (Group 3), five mice): five
- MDS ([3]; DU145, i.v. qd x 1 (compounds estimated MTD; Taxol 24 mg/kg split), days until tumor 1.5 g, ended Day 91): 37.4 days
- toxic deaths / toxic lethalities ([3]; DU145, i.v. qd x 1, five mice per group): One
- Mean Score ([3]; Taxol 18 mg/kg i.p. qd x 5, 5 mice): 0 ± 0
- Mean Score ([3]; i.v. qd x 1 at estimated MTD (Taxol 24 mg/kg split), 5 mice/group, Day 91): 2 ± 1
- MDS (n) ([3]; mean days of survival until tumor reached 1.5 g, i.v. qd x 1 at estimated MTD (Taxol 24 mg/kg as two split doses), 5 mice/group, study ended Day 91): 37.4 ± 8.9 (3) days
- Stable Disease ([3]; tumor did not reach 1.5 g by end of study, i.v. qd x 1 at estimated MTD (Taxol 24 mg/kg split), Day 91): 1
- Complete Response ([3]; Taxol 18 mg/kg i.p. qd x 5): 0
- Partial Response ([3]; Taxol 18 mg/kg i.p. qd x 5): 0
- Stable Disease ([3]; Taxol 18 mg/kg i.p. qd x 5): 0
- Survivors ([3]; Taxol 18 mg/kg i.p. qd x 5): 0
- Toxic Deaths ([3]; Taxol 18 mg/kg i.p. qd x 5): 5
- Toxic Deaths ([3]; i.v. qd x 1 at estimated MTD (Taxol 24 mg/kg as two split doses), Day 91): 1
- Complete Response [3, 8]: 0
- Partial Response [3, 8]: 0
- Survivors [3, 8]: 1
- survival extension compared to vehicle controls ([4]; Taxol 36 mg/kg i.v.): 30%
- MDS (n) ([4]; i.v. MTD in two half doses one hour apart, qd x 1, Taxol 36 mg/kg, 0503 72.1 mg/kg, days until tumor 1.5 g, ended Day 60): 16 ± 2.0 (6) days
- Toxic Deaths ([4]; i.v. split dose qd x 1, six mice per group): 0
- Survivors ([4]; i.v. split dose qd x 1, six mice per group, Day 60): 0
